The first assay deals with T1, mTOR (Homo sapiens, UniProt P42345).
T1 construct: FLAG; made in house
T1 sequence (P42345 1362-2549): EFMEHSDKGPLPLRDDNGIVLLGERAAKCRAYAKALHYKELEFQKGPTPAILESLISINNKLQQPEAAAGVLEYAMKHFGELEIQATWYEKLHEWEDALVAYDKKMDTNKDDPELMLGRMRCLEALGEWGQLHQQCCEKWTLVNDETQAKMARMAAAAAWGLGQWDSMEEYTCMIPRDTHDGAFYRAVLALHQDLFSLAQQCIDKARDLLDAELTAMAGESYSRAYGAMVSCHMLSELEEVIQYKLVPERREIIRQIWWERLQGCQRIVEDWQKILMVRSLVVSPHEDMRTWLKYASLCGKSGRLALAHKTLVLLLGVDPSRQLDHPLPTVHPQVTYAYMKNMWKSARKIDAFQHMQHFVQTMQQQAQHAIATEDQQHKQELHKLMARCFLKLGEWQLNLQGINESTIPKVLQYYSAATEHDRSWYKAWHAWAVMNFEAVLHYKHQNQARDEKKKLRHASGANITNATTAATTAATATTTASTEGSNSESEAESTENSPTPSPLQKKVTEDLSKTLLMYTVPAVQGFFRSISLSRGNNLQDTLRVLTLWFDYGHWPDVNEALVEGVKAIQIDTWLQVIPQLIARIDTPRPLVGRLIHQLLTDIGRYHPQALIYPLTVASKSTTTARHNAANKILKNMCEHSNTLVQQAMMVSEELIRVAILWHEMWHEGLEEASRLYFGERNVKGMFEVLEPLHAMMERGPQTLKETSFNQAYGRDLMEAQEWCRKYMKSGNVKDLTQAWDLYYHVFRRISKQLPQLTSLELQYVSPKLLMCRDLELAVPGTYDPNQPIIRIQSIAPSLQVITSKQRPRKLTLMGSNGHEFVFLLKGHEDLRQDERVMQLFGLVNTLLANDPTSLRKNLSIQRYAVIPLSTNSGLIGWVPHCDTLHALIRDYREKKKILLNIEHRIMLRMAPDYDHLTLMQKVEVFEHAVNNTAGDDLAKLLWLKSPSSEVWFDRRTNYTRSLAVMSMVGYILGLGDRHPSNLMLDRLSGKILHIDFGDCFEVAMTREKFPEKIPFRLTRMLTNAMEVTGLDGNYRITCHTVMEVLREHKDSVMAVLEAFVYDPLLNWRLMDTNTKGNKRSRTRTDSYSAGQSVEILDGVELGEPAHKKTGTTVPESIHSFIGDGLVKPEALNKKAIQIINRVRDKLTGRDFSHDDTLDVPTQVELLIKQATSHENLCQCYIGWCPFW
In words: In Vitro mTOR Kinase Assay (Echo), Test (a)(ii). The conditions noted are these: read-out: mTOR Kinase Assay (Echo). It counts as biochemical. In a few lines:
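Inhibition of truncated mTOR (1362-2549, FLAG-tagged, purified from stably transfected HEK293 cells) is measured as reduced AlphaScreen signal from a phospho-T389-recognising antibody bound to the biotinylated peptide product. Kinase incubation lasts 2 hours at room temperature. Potency is given as IC50.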
Consider `CC(C)S(=O)(=O)C1(c2cc(N3CCOC[C@@H]3C)nc(-c3ccc(NC(=O)NCCN(C)C)cc3)n2)CC1` [Example 7g, 3-(2-dimethylaminoethyl)-1-[4-[4-[(3S)-3-methylmorpholin-4-yl]-6-(1-propan-2-ylsulfonylcyclopropyl)pyrimidin-2-yl]phenyl]urea], for which the IC50 came to 211 nM.

As for `C[C@H]1COCCN1c1cc(C2(S(=O)(=O)c3ccccc3C(F)(F)F)CC2)nc(-c2ccc(NC(=O)Nc3cnn(C)c3)cc2)n1` [Example 10m, 1-[4-[4-[(3S)-3-methylmorpholin-4-yl]-6-[1-[2-(trifluoromethyl)phenyl]sulfonylcyclopropyl]pyrimidin-2-yl]phenyl]-3-(1-methylpyrazol-4-yl)urea], the IC50 was found to be 4.97 nM.

With `C[C@H]1COCCN1c1cc(C2(S(C)(=O)=O)CC2)nc(-c2ccc(NC(=O)NCc3cnn(C)c3)cc2)n1` [Example 2a, 1-[4-[4-[(3S)-3-methylmorpholin-4-yl]-6-(1-methylsulfonylcyclopropyl)pyrimidin-2-yl]phenyl]-3-[(1-methylpyrazol-4-yl)methyl]urea], the IC50 was 93.2 nM.

As to `C[C@H]1COCCN1c1cc(C2(S(=O)(=O)C3CC3)CC2)nc(-c2ccc(NC(=O)Nc3cnn(C)c3)cc2)n1` [Example 3m, 1-[4-[4-(1-cyclopropylsulfonylcyclopropyl)-6-[(3S)-3-methylmorpholin-4-yl]pyrimidin-2-yl]phenyl]-3-(1-methylpyrazol-4-yl)urea], the IC50 is 0.497 nM.

As for `C[C@H]1COCCN1c1cc(C2(S(=O)(=O)c3ccncc3)CC2)nc(-c2ccc(NC(=O)Nc3cnn(C)c3)cc2)n1` [Example 6l, 1-[4-[4-[(3S)-3-methylmorpholin-4-yl]-6-(1-pyridin-4-ylsulfonylcyclopropyl)pyrimidin-2-yl]phenyl]-3-(1-methylpyrazol-4-yl)urea], the IC50 is 1.19 nM.

As for `C[C@H]1COCCN1c1cc(C2(S(C)(=O)=O)CC2)nc(-c2ccc(NC(=O)NC(C)(C)CO)cc2)n1` [Example 2f, 3-(1-hydroxy-2-methyl-propan-2-yl)-1-[4-[4-[(3S)-3-methylmorpholin-4-yl]-6-(1-methylsulfonylcyclopropyl)pyrimidin-2-yl]phenyl]urea], the IC50 worked out at 4.33 nM.

For `C[C@H]1COCCN1c1cc(C2(S(=O)(=O)c3ccncc3)CC2)nc(-c2ccc(NC(=O)Nc3ccc(C(F)(F)F)cc3)cc2)n1` [Example 6i, 1-[4-[4-[(3S)-3-methylmorpholin-4-yl]-6-(1-pyridin-4-ylsulfonylcyclopropyl)pyrimidin-2-yl]phenyl]-3-[4-(trifluoromethyl)phenyl]urea], the IC50 came to 4.62 nM.

Still in this assay, the particulars now being: table of enzyme assay Test (a)(ii); read-out: Test (a)(ii) IC50.
Regarding `CC(C)(CO)NC(=O)Nc1ccc(-c2nc(N3CCOCC3)cc(C3(S(=O)(=O)C4CC4)CC3)n2)cc1` [Example 13e, 1-[4-[4-(1-cyclopropylsulfonylcyclopropyl)-6-morpholin-4-ylpyrimidin-2-yl]phenyl]-3-(1-hydroxy-2-methylpropan-2-yl)urea], the IC50 is 30.1 nM.

With `C[C@H]1COCCN1c1cc(C2(S(=O)(=O)c3cc(F)cc(F)c3)CCNCC2)nc(-c2ccc(NC(=O)NC3CC3)cc2)n1` [Example 30, 3-Cyclopropyl-1-[4-[4-[4-(3,5-difluorophenyl)sulfonylpiperidin-4-yl]-6-[(3S)-3-methylmorpholin-4-yl]pyrimidin-2-yl]phenyl]urea], the IC50 worked out at 25 nM.

For `C[C@H]1COCCN1c1cc(C2(S(=O)(=O)C3CC3)CCCC2)nc(-c2ccc(NC(=O)NCCC#N)cc2)n1` [Example 36l, 3-(2-cyanoethyl)-1-[4-[4-(1-cyclopropylsulfonylcyclopentyl)-6-[(3S)-3-methylmorpholin-4-yl]pyrimidin-2-yl]phenyl]urea], the IC50 amounted to 42.8 nM.

For `C[C@H]1COCCN1c1cc(C2(S(=O)(=O)c3ccccc3F)CC2)nc(-c2ccc(NC(=O)NCCF)cc2)n1` [Example 58c, 3-(2-fluoroethyl)-1-[4-[4-[1-(2-fluorophenyl)sulfonylcyclopropyl]-6-[(3S)-3-methylmorpholin-4-yl]pyrimidin-2-yl]phenyl]urea], the IC50 stood at 3.27 nM.

Take `C[C@H]1COCCN1c1cc(C2(S(=O)(=O)CCCO)CCC2)nc(-c2ccc(NC(=O)Nc3ccon3)cc2)n1` [Example 43m, 1-[4-[4-[1-(3-hydroxypropylsulfonyl)cyclobu-tyl]-6-[(3S)-3-methylmorpholin-4-yl]pyrimidin-2-yl]phenyl]-3-(1,2-oxazol-3-yl)urea]: the IC50 worked out at 5.31 nM.

Regarding `CNC(=O)Nc1ccc(-c2nc(N3CCOC[C@@H]3C)cc(C3(S(=O)(=O)c4ccccn4)CCC3)n2)cc1` [Example 36ag, 3-methyl-1-[4-[4-[(3S)-3-methylmorpholin-4-yl]-6-(1-pyridin-2-ylsulfonylcyclobutyl)pyrimidin-2-yl]phenyl]urea], the IC50 was 1.3 nM.

For the compound `CCS(=O)(=O)C1(c2cc(N3CCOC[C@@H]3C)nc(-c3ccc(NC(=O)NCCC#N)cc3)n2)CC1` [Example 36u, 3-(2-cyanoethyl)-1-[4-[4-(1-ethylsulfonylcyclopropyl)-6-[(3S)-3-methylmorpholin-4-yl]pyrimidin-2-yl]phenyl]urea], the IC50 was found to be 9.22 nM.

As to `C[C@H]1COCCN1c1cc(C2(S(=O)(=O)CCCO)CC2)nc(-c2ccc(NC(=O)Nc3cnn(C)c3)cc2)n1` [Example 31j, 1-[4-[4-[1-(3-hydroxypropylsulfonyl)cyclopropyl]-6-[(3S)-3-methylmorpholin-4-yl]pyrimidin-2-yl]phenyl]-3-(1-methylpyrazol-4-yl)urea], the IC50 stood at 1.03 nM.

Take `C[C@H]1COCCN1c1cc(C2(S(=O)(=O)c3ccc(C(N)=O)cc3Cl)CC2)nc(-c2ccc(NC(=O)NC3CC3)cc2)n1` [Example 85b, 3-chloro-4-[1-[2-[4-(cyclopropylcarbamoylamino)phenyl]-6-[(3S)-3-methylmorpholin-4-yl]pyrimidin-4-yl]cyclopropyl]sulfonylbenzamide]: the IC50 came to 5.26 nM.

Take `CNC(=O)Nc1ccc(-c2nc(N3CCOCC3)cc(C3(S(=O)(=O)c4ccncc4)CC3)n2)cc1` [Example 36at, 1-methyl-3-[4-[4-morpholin-4-yl-6-(1-pyridin-4-ylsulfonylcyclopropyl)pyrimidin-2-yl]phenyl]urea]: the IC50 is 6.39 nM.

In the case of `C[C@H]1COCCN1c1cc(C2(S(=O)(=O)c3nccs3)CCC2)nc(-c2ccc(NC(=O)NC(C)(C)CO)cc2)n1` [Example 98g, 3-(1-hydroxy-2-methylpropan-2-yl)-1-[4-[4-[(3S)-3-methylmorpholin-4-yl]-6-[1-(1,3-thiazol-2-ylsulfonyl)cyclobutyl]pyrimidin-2-yl]phenyl]urea], the IC50 is 12.7 nM.

With `CC[C@H]1COCCN1c1cc(C2(S(=O)(=O)c3ccccc3)CC2)nc(-c2ccc(NC(=O)NCC(F)F)cc2)n1` [Example 74d, 1-[4-[4-[1-(benzenesulfonyl)cyclopropyl]-6-[(3S)-3-ethylmorpholin-4-yl]pyrimidin-2-yl]phenyl]-3-(2,2-difluoroethyl)urea], the IC50 is 2.79 nM.

In the case of `C[C@H]1COCCN1c1cc(C2(S(=O)(=O)c3nccs3)CCC2)nc(-c2ccc(NC(=O)NCCCO)cc2)n1` [Example 98j, 3-(3-hydroxypropyl)-1-[4-[4-[(3S)-3-methylmorpholin-4-yl]-6-[1-(1,3-thiazol-2-ylsulfonyl)cyclobutyl]pyrimidin-2-yl]phenyl]urea], the IC50 stood at 3.74 nM.

Consider `Cc1csc(S(=O)(=O)C2(c3cc(N4CCOCC4)nc(-c4ccc(NC(=O)NC5CCC5)cc4)n3)CC2)n1` [Example 42e, 3-cyclobutyl-1-[4-[4-[1-[(4-methyl-1,3-thiazol-2-yl)sulfonyl]cyclopropyl]-6-morpholin-4-ylpyrimidin-2-yl]phenyl]urea], for which the IC50 turned out to be 2.57 nM.

As to `CCNC(=O)Nc1ccc(-c2nc(N3CCOC[C@@H]3C)cc(C3(S(=O)(=O)c4ccc(C(N)=O)cc4Cl)CC3)n2)cc1` [Example 85a, 3-chloro-4-[1-[2-[4-(ethylcarbamoylamino)phenyl]-6-[(3S)-3-methylmorpholin-4-yl]pyrimidin-4-yl]cyclopropyl]sulfonylbenzamide], the IC50 stood at 3.13 nM.

Turning to `C[C@H]1COCCN1c1cc(C2(S(=O)(=O)c3ccccc3)CCC2)nc(-c2ccc(NC(=O)NCCF)cc2)n1` [Example 64s, 1-[4-[4-[1-(benzenesulfonyl)cyclobutyl]-6-[(3S)-3-methylmorpholin-4-yl]pyrimidin-2-yl]phenyl]-3-(2-fluoroethyl)urea], the IC50 was found to be 2.96 nM.

As to `C[C@H]1COCCN1c1cc(C2(S(=O)(=O)c3ccccc3)CC2)nc(-c2ccc(NC(=O)Nc3ccon3)cc2)n1` [Example 36dz, 1-[4-[4-[1-(benzenesulfonyl)cyclopropyl]-6-[(3S)-3-methylmorpholin-4-yl]pyrimidin-2-yl]phenyl]-3-(1,2-oxazol-3-yl)urea], the IC50 was 2.77 nM.

For `Cc1csc(S(=O)(=O)C2(c3cc(N4CCOC[C@@H]4C)nc(-c4ccc(NC(=O)NCCCO)cc4)n3)CC2)n1` [Example 25l, 3-(3-hydroxypropyl)-1-[4-[4-[(3S)-3-methylmorpholin-4-yl]-6-[1-[(4-methyl-1,3-thiazol-2-yl)sulfonyl]cyclopropyl]pyrimidin-2-yl]phenyl]urea], the IC50 was found to be 0.956 nM.

For `C[C@H]1COCCN1c1cc(C2(S(=O)(=O)c3ccc(Cl)cc3)CC2)nc(-c2ccc(NC(=O)NCC(F)F)cc2)n1` [Example 64ah, 1-[4-[4-[1-(4-chlorophenyl)sulfonylcyclopropyl]-6-[(3S)-3-methylmorpholin-4-yl]pyrimidin-2-yl]phenyl]-3-(2,2-difluoroethyl)urea], the IC50 was determined as 6.84 nM.

Consider `CNC(=O)Nc1ccc(-c2nc(N3CCOC[C@@H]3C)cc(C3(S(=O)(=O)c4ccccc4)CCC3)n2)cc1` [Example 36bu, 1-[4-[4-[1-(benzenesulfonyl)cyclobutyl]-6-[(3S)-3-methylmorpholin-4-yl]pyrimidin-2-yl]phenyl]-3-methylurea], for which the IC50 was determined as 1.18 nM.

Take `CNC(=O)Nc1ccc(-c2nc(N3CCOC[C@@H]3C)cc(C3(S(=O)(=O)c4cn(C)nc4C)CC3)n2)cc1` [Example 55, 1-[4-[4-[1-(1,3-Dimethylpyrazol-4-yl)sulfonylcyclopropyl]-6-[(3S)-3-methylmorpholin-4-yl]pyrimidin-2-yl]phenyl]-3-methylurea]: the IC50 is 2.96 nM.

The record behind these values is patent US20090018134A1, “Compounds - 945” (AstraZeneca AB, priority 2007, published 2009).
